PubChem BioAssay (NCI)
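96-well plates; 48 h exposure; 5 concentrations. Endpoints by linear interpolation between flanking doses. Not reached: highest tested concentration assigned. At the GI50, growth is halved. TGI: concentration producing complete growth inhibition.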

Legend:
Test in all cases: NCI-60 cell line screen, 48 h
A549 NSCLC = test system: A549 NSCLC
EKVX NSCLC = test system: EKVX NSCLC
SK-MEL-28 melanoma = test system: SK-MEL-28 melanoma
HCC-2998 colon = test system: HCC-2998 colon
CAKI-1 renal = test system: CAKI-1 renal
HT29 colon = test system: HT29 colon
NCI-H23 lung = test system: NCI-H23 lung
HS 578T breast = test system: HS 578T breast
T-47D breast = test system: T-47D breast
HOP-92 NSCLC = test system: HOP-92 NSCLC

N#Cc1c(Cl)c2cc([N+](=O)[O-])ccc2n2c1nc1ccccc12
TGI (A549 NSCLC): > 100 µM
TGI (EKVX NSCLC): 34.2 µM
TGI (SK-MEL-28 melanoma): 30 µM
TGI (HCC-2998 colon): 19.4 µM
TGI (CAKI-1 renal): 4.78 µM
TGI (HT29 colon): 18.4 µM
TGI (NCI-H23 lung): 35.8 µM
TGI (HS 578T breast): 18 µM
TGI (T-47D breast): 4.8 µM

CCOC(=O)C(O)(NC(=O)c1ccc(F)cc1)C(F)(F)F (configuration not stated)
TGI (A549 NSCLC): > 100 µM
TGI (EKVX NSCLC): > 100 µM
TGI (SK-MEL-28 melanoma): > 100 µM
TGI (HOP-92 NSCLC): > 100 µM
TGI (HCC-2998 colon): > 100 µM
TGI (CAKI-1 renal): > 100 µM
TGI (HT29 colon): > 100 µM
TGI (NCI-H23 lung): > 100 µM
TGI (HS 578T breast): > 100 µM
TGI (T-47D breast): > 100 µM

O=S1(=O)N(CCNc2nccc(-c3c(-c4cccc(O)c4)nc4sccn34)n2)CCN1Cc1ccccc1
GI50 (A549 NSCLC): 12.5 µM
TGI (A549 NSCLC): > 50 µM
GI50 (EKVX NSCLC): 26.8 µM
TGI (EKVX NSCLC): > 50 µM
GI50 (SK-MEL-28 melanoma): 417 nM
TGI (SK-MEL-28 melanoma): > 50 µM
GI50 (HOP-92 NSCLC): 12.9 µM
TGI (HOP-92 NSCLC): > 50 µM
GI50 (HCC-2998 colon): 14.2 µM
TGI (HCC-2998 colon): 39.8 µM
GI50 (CAKI-1 renal): 4.4 µM
TGI (CAKI-1 renal): 17.8 µM
GI50 (HT29 colon): 2570 nM
TGI (HT29 colon): 36.4 µM
GI50 (NCI-H23 lung): 7.19 µM
TGI (NCI-H23 lung): 27.7 µM
GI50 (HS 578T breast): 2780 nM
TGI (HS 578T breast): 16.6 µM
GI50 (T-47D breast): 5.16 µM
TGI (T-47D breast): 27 µM

NCCCCC(N)C(=O)NCCNc1ccc(NCCNC(=O)C(N)CCCCN)c2c1C(=O)c1ccccc1C2=O (configuration not stated)
TGI (A549 NSCLC): > 100 µM
TGI (EKVX NSCLC): > 100 µM
TGI (SK-MEL-28 melanoma): > 100 µM
TGI (HOP-92 NSCLC): > 100 µM
TGI (HCC-2998 colon): > 100 µM
TGI (CAKI-1 renal): > 100 µM
TGI (HT29 colon): > 100 µM
TGI (NCI-H23 lung): > 100 µM
TGI (HS 578T breast): > 100 µM
TGI (T-47D breast): > 100 µM

C=CC1(C)CCC2=C(CCC3C(C)(C(=O)OC)CCCC23C)C1=O (configuration not stated)
TGI (EKVX NSCLC): 32.8 µM
TGI (CAKI-1 renal): 87.1 µM
TGI (HT29 colon): 31.2 µM
TGI (NCI-H23 lung): 54.5 µM

O=C(N/N=C\c1cccc(O)c1)c1ccncc1
TGI (A549 NSCLC): > 100 µM
TGI (EKVX NSCLC): > 100 µM
TGI (SK-MEL-28 melanoma): > 100 µM
TGI (HOP-92 NSCLC): > 100 µM
TGI (HCC-2998 colon): > 100 µM
TGI (CAKI-1 renal): > 100 µM
TGI (HT29 colon): > 100 µM
TGI (NCI-H23 lung): > 100 µM
TGI (HS 578T breast): > 100 µM
TGI (T-47D breast): > 100 µM

O=C1CCCCC2N(C(c3ccccc3)c3ccccc3)CC[C@@]12c1ccccc1 (mixture of isomers)
TGI (A549 NSCLC): > 10 µM
TGI (EKVX NSCLC): > 10 µM
TGI (SK-MEL-28 melanoma): > 10 µM
TGI (HOP-92 NSCLC): > 10 µM
TGI (CAKI-1 renal): > 10 µM
TGI (HT29 colon): > 10 µM
TGI (NCI-H23 lung): > 10 µM

C=C(C)C(=O)OC1CCC2(C)C(CCC3C2CCC2(C)C(c4ccc(=O)oc4)CC4OC432)C1 (configuration not stated)
TGI (A549 NSCLC): 25.4 µM
TGI (EKVX NSCLC): 11 µM
TGI (SK-MEL-28 melanoma): 44.5 µM
TGI (HOP-92 NSCLC): 9.96 µM
TGI (HCC-2998 colon): 17.8 µM
TGI (CAKI-1 renal): 15 µM
TGI (HT29 colon): 52 µM
TGI (NCI-H23 lung): 19.3 µM

O=C(O)Cc1cc(O)c(CC(=O)O)cc1O
TGI (A549 NSCLC): > 100 µM
TGI (EKVX NSCLC): > 100 µM
TGI (SK-MEL-28 melanoma): > 100 µM
TGI (HOP-92 NSCLC): > 100 µM
TGI (HCC-2998 colon): > 100 µM
TGI (CAKI-1 renal): > 100 µM
TGI (HT29 colon): > 100 µM
TGI (NCI-H23 lung): > 100 µM
TGI (HS 578T breast): > 100 µM
TGI (T-47D breast): > 100 µM

CCN(CC)CC(=O)O[C@]1(CC)C(=O)OCc2c1cc1n(c2=O)Cc2cc3ccccc3nc2-1
TGI (A549 NSCLC): 2.37 µM
TGI (EKVX NSCLC): > 100 µM
TGI (SK-MEL-28 melanoma): 39.1 µM
TGI (HOP-92 NSCLC): 2.12 µM
TGI (HCC-2998 colon): 1.28 µM
TGI (CAKI-1 renal): 0.145 µM
TGI (NCI-H23 lung): 0.13 µM
TGI (HS 578T breast): > 100 µM
TGI (T-47D breast): 0.404 µM

Cc1cc(O)c(C(C)(C)C)cc1Sc1cc(C(C)(C)C)c(O)cc1C
GI50 (A549 NSCLC): 3.1 µM
TGI (A549 NSCLC): 10.3 µM
GI50 (EKVX NSCLC): 2.93 µM
TGI (EKVX NSCLC): 11.6 µM
GI50 (SK-MEL-28 melanoma): 1630 nM
TGI (SK-MEL-28 melanoma): 3.09 µM
GI50 (HOP-92 NSCLC): 2.49 µM
TGI (HOP-92 NSCLC): 6.17 µM
GI50 (HCC-2998 colon): 2.45 µM
TGI (HCC-2998 colon): 5.56 µM
GI50 (CAKI-1 renal): 2.07 µM
TGI (CAKI-1 renal): 6.62 µM
GI50 (HT29 colon): 2340 nM
TGI (HT29 colon): 4.47 µM
GI50 (NCI-H23 lung): 3.49 µM
TGI (NCI-H23 lung): 11.8 µM
GI50 (HS 578T breast): 3020 nM
TGI (HS 578T breast): 13.9 µM
GI50 (T-47D breast): 2.09 µM
TGI (T-47D breast): 13.4 µM

Cc1nc2ccccc2n1C(=O)c1c(F)c(F)c(F)c(F)c1F
TGI (A549 NSCLC): > 100 µM
TGI (EKVX NSCLC): > 100 µM
TGI (SK-MEL-28 melanoma): 82.9 µM
TGI (HOP-92 NSCLC): 27.9 µM
TGI (HCC-2998 colon): 34.2 µM
TGI (CAKI-1 renal): 48.9 µM
TGI (HT29 colon): 27.5 µM
TGI (NCI-H23 lung): 56.2 µM
TGI (HS 578T breast): > 100 µM
TGI (T-47D breast): > 100 µM

Clc1ccccc1/C=C/c1cscn1
TGI (EKVX NSCLC): > 100 µM
TGI (SK-MEL-28 melanoma): > 100 µM
TGI (HCC-2998 colon): > 100 µM
TGI (HT29 colon): > 100 µM
TGI (NCI-H23 lung): > 100 µM

CCOC(=O)CN=C1NNS(=O)(=O)c2ccccc21
TGI (A549 NSCLC): > 100 µM
TGI (EKVX NSCLC): > 100 µM
TGI (SK-MEL-28 melanoma): > 100 µM
TGI (HOP-92 NSCLC): > 100 µM
TGI (HCC-2998 colon): > 100 µM
TGI (CAKI-1 renal): > 100 µM
TGI (HT29 colon): > 100 µM
TGI (NCI-H23 lung): > 100 µM
TGI (HS 578T breast): > 100 µM
TGI (T-47D breast): > 100 µM

Cc1ccc2c(c1)C1(C)OC(C=CC1=O)O2 (configuration not stated)
TGI (A549 NSCLC): 10.1 µM
TGI (EKVX NSCLC): 7.69 µM
TGI (SK-MEL-28 melanoma): 2.03 µM
TGI (HOP-92 NSCLC): 1.48 µM
TGI (HCC-2998 colon): 8.15 µM
TGI (CAKI-1 renal): 1.49 µM
TGI (HT29 colon): 0.684 µM
TGI (NCI-H23 lung): 2.38 µM
TGI (HS 578T breast): > 26.6 µM
TGI (T-47D breast): 1.65 µM

Cn1c(=O)c2[nH]c(CCCCC(=O)O)nc2n(C)c1=O
TGI (A549 NSCLC): > 100 µM
TGI (EKVX NSCLC): > 100 µM
TGI (SK-MEL-28 melanoma): > 100 µM
TGI (HOP-92 NSCLC): > 100 µM
TGI (HCC-2998 colon): > 100 µM
TGI (CAKI-1 renal): > 100 µM
TGI (HT29 colon): > 100 µM
TGI (NCI-H23 lung): > 100 µM
TGI (HS 578T breast): > 100 µM
TGI (T-47D breast): > 100 µM
